Measurements taken from PubChem BioAssay (NCI).
Values joined by “and” are separate entries in the source; they are usually repeats but may differ in a detail not shown here. Equal values may be shown once.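 Method: 48-hour compound exposure of cells in 96-well plates, five concentrations, linear interpolation of endpoints. GI50 = concentration required for 50% inhibition of growth. TGI marks complete inhibition of growth.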

How the values were obtained:
Assay in all cases: NCI tumour cell line growth inhibition, 48 h
OVCAR-8 ovarian = test system: OVCAR-8 ovarian
SK-MEL-2 melanoma = test system: SK-MEL-2 melanoma
SNB-19 CNS = test system: SNB-19 CNS
HS 578T breast = test system: HS 578T breast
RXF 393 renal = test system: RXF 393 renal
HOP-92 NSCLC = test system: HOP-92 NSCLC
CAKI-1 renal = test system: CAKI-1 renal
K-562 leukemia = test system: K-562 leukemia
RPMI-8226 leukemia = test system: RPMI-8226 leukemia
HCC-2998 colon = test system: HCC-2998 colon

Structure (SMILES): COc1ccc(C(c2cc3c(cc2O)OCO3)N2CCOCC2)cc1OC (stereo unspecified)
- TGI (OVCAR-8 ovarian): 27.2 µM
- TGI (SK-MEL-2 melanoma): 32.5 µM
- TGI (SNB-19 CNS): 30.4 µM
- TGI (HS 578T breast): 19.9 µM
- TGI (RXF 393 renal): 58.2 µM
- TGI (HOP-92 NSCLC): 32.8 µM
- TGI (CAKI-1 renal): 25.4 µM
- TGI (K-562 leukemia): 69.4 µM

Structure (SMILES): Cn1c(=O)c2[nH]c(CCCCc3nc4c([nH]3)c(=O)n(C)c(=S)n4C)nc2n(C)c1=S
- TGI (OVCAR-8 ovarian): > 100 µM
- TGI (SK-MEL-2 melanoma): > 100 µM
- TGI (RPMI-8226 leukemia): > 100 µM
- TGI (SNB-19 CNS): > 100 µM
- TGI (HS 578T breast): > 100 µM
- TGI (RXF 393 renal): > 100 µM
- TGI (HOP-92 NSCLC): > 100 µM
- TGI (CAKI-1 renal): > 100 µM
- TGI (K-562 leukemia): > 100 µM

Structure (SMILES): Cc1c(-c2nnc(-c3cc(Cl)c(Cl)cc3Cl)o2)nnn1-c1ccnc2c(C(F)(F)F)cccc12
- GI50 (SK-MEL-2 melanoma): 19.9 µM
- TGI (SK-MEL-2 melanoma): 52 µM
- GI50 (RPMI-8226 leukemia): 19.9 µM
- TGI (RPMI-8226 leukemia): 54.1 µM
- GI50 (SNB-19 CNS): 23.8 µM
- TGI (SNB-19 CNS): 79.9 µM
- GI50 (HS 578T breast): 25.6 µM
- TGI (HS 578T breast): 65.6 µM
- GI50 (HCC-2998 colon): 29.1 µM
- TGI (HCC-2998 colon): 91.9 µM
- GI50 (HOP-92 NSCLC): 14.4 µM
- TGI (HOP-92 NSCLC): 32.2 µM
- GI50 (CAKI-1 renal): 31.4 µM
- TGI (CAKI-1 renal): 94.8 µM
- GI50 (K-562 leukemia): 33.1 µM
- TGI (K-562 leukemia): > 100 µM

Structure (SMILES): CC(C)(C)c1cc(-c2nc3c(F)c(F)c(F)c(F)c3[nH]2)cc(C(C)(C)C)c1O
- GI50 (OVCAR-8 ovarian): > 100 µM
- TGI (OVCAR-8 ovarian): > 100 µM
- GI50 (SK-MEL-2 melanoma): > 100 µM
- TGI (SK-MEL-2 melanoma): > 100 µM
- GI50 (RPMI-8226 leukemia): > 100 µM
- TGI (RPMI-8226 leukemia): > 100 µM
- GI50 (SNB-19 CNS): > 100 µM
- TGI (SNB-19 CNS): > 100 µM
- GI50 (HS 578T breast): > 100 µM
- TGI (HS 578T breast): > 100 µM
- GI50 (RXF 393 renal): > 100 µM
- TGI (RXF 393 renal): > 100 µM
- GI50 (HOP-92 NSCLC): > 100 µM
- TGI (HOP-92 NSCLC): > 100 µM
- GI50 (CAKI-1 renal): > 100 µM
- TGI (CAKI-1 renal): > 100 µM
- GI50 (K-562 leukemia): > 100 µM
- TGI (K-562 leukemia): > 100 µM

Structure (SMILES): CCCCCCNCCCNc1c2ccccc2nc2cccc([N+](=O)[O-])c12
- TGI (OVCAR-8 ovarian): 0.136 µM and 0.17 µM
- TGI (SK-MEL-2 melanoma): 0.0331 µM and 0.0231 µM
- GI50 (SNB-19 CNS): 0.017 µM
- TGI (HS 578T breast): 0.21 µM and 0.434 µM
- TGI (HCC-2998 colon): 0.021 µM
- TGI (RXF 393 renal): 0.0312 µM
- TGI (HOP-92 NSCLC): 0.0792 µM and 0.0693 µM
- TGI (CAKI-1 renal): 0.271 µM
- TGI (K-562 leukemia): 0.0212 µM

Structure (SMILES): COc1ccc(C2c3c(-c4ccccc4)nn(-c4ccccc4)c3Oc3ncn4nc(CC#N)nc4c32)cc1OC (stereo unspecified)
- TGI (OVCAR-8 ovarian): > 100 µM
- TGI (SK-MEL-2 melanoma): > 100 µM and 47.3 µM
- GI50 (RPMI-8226 leukemia): > 100 µM and 20.9 µM
- TGI (RPMI-8226 leukemia): > 100 µM
- GI50 (SNB-19 CNS): 23.6 µM and 4.62 µM
- TGI (SNB-19 CNS): 73.7 µM and 33.7 µM
- TGI (HS 578T breast): 59.1 µM and 6.86 µM
- GI50 (HCC-2998 colon): > 100 µM and 22.6 µM
- TGI (HCC-2998 colon): > 100 µM
- GI50 (HOP-92 NSCLC): 17.6 µM and 1.96 µM
- TGI (CAKI-1 renal): > 100 µM and 13.8 µM
- TGI (K-562 leukemia): > 100 µM

Structure (SMILES): CC1=CC(=O)c2ccc(C)cc2C1=O
- TGI (OVCAR-8 ovarian): 26.8 µM
- TGI (SK-MEL-2 melanoma): 44.3 µM
- TGI (RPMI-8226 leukemia): 6.36 µM
- TGI (SNB-19 CNS): 30 µM
- TGI (HS 578T breast): > 100 µM
- TGI (HCC-2998 colon): 34.7 µM
- TGI (HOP-92 NSCLC): 4.2 µM
- TGI (CAKI-1 renal): 14.9 µM
- TGI (K-562 leukemia): > 100 µM
